{
  "source": "patent US20260193619A1",
  "about": "“CULTURE MEDIUM COMPOSITION” (priority 2023, published 2026)",
  "key": {"[1]": {"tested_on": "HEK293", "test": "Effect of sodium dichloroacetate on proliferation of HEK293 in suspension culture (viable cell density)", "format": "cell-based, human", "details": "HEK293 (Viral Production Cells 2.0), Viral Production Medium + 5 mM sodium dichloroacetate vs medium without, 3 days, FIG. 1", "experimental": "(§1) In the following Example 1, the ability of human embryonic kidney cell 293 (HEK293) to produce AAV was evaluated using sodium dichloroacetate. The reagents, cells, and medium used are as follows: • Sodium dichloroacetate: Sodium dichloroacetate (FUJIFILM Wako Pure Chemical Industries, Ltd., 326-87772) • HEK293: Viral Production Cells 2.0 (Thermo Fisher Scientific, A49784) • medium for HEK293: Viral Production Medium (Thermo Fisher Scientific: A4817901)\n(§2) Viral Production Cells 2.0 were seeded in 30 mL of Viral Production Medium supplemented with GlutaMAXIM Supplement (Thermo Fisher Scientific: 35050061) to a final concentration of 4 mM in a 125 mL Erlenmeyer flask (VIOLAMO, SEF125V). The cells were then cultured in an incubator set at 37° C., 8% CO2 under stirring for two passages. […] On day 3, the number of viable cells was measured using a viable cell autoanalyzer Vi-CELL BLU (manufactured by Becman). […] 2 (Takara Bio: 6233), and the AAV8 genome titer was measured using 7500 Fast Real-Time PCR System (Thermo Fisher Scientific: 4357362). In addition, the number of viral particles was also measured using AAV-8 Titration ELISA Kit (PROGEN Biotechnik: PRAAV8). The full/empty capsid ratio (full capsid ratio) was calculated therefrom."}, "[2]": {"tested_on": "AAV8", "test": "Production of AAV8 in HEK293 by adding sodium dichloroacetate (genome titer by real-time PCR, particles by ELISA, full capsid ratio)", "format": "cell-based, human", "details": "HEK293, 5 mM sodium dichloroacetate, 3 days after transfection, medium without DCA = 100%", "experimental": "as §1, §2"}, "[3]": {"tested_on": "Human adenovirus 32", "test": "Production of adenovirus in HEK293 by adding sodium dichloroacetate in suspension culture system", "format": "cell-based", "details": "HEK293 2.sus, CDM4HEK293 with or without sodium dichloroacetate, MOI 0.1", "experimental": "In the following Example, the ability of human embryonic kidney cell 293 (HEK293) to produce adenovirus can be evaluated using sodium dichloroacetate. […] The cell number is measured using a hemocytometer and glutamine-containing 293 SFM II is added to 3×10^5 cells/mL. […] The cell number is measured using a hemocytometer and the culture solution is added to 3×10^5 cells/mL. 5 ML of the adjusted cell suspension is added to two Petri dishes and culturing with shaking (50 rpm) is performed in a CO2 incubator for 3-4 days. • (11) After culturing, steps (8) to (10) are repeated three times. • (12) After culturing for 3 days, the cell number is measured (FIG. 1) and adjusted to 1×10^5 cells/ml using CDM4HEK293 with or without addition of sodium dichloroacetate, and 5 mL thereof is added per Petri dish. […]"}},
  "data": [
    {"smiles": "O=C([O-])C(Cl)Cl.[Na+]", "note": "[sodium dichloroacetate, Sodium dichloroacetate]", "values": [
      {"measurement": "cell proliferation (viable cell density before dilution on day 3 after seeding)", "setting": "[1]", "result": "slightly inhibited cell proliferation"},
      {"measurement": "AAV8 genome titer (relative)", "setting": "[2]; FIG. 2", "result": "improvements"},
      {"measurement": "full capsid ratio (relative)", "setting": "[2]; FIG. 3", "result": "improvements"},
      {"measurement": "adenovirus titer", "setting": "[3]", "result": "Improvement"}
    ]}
  ]
}
